One may read the melting point as the temperature, or range, at which the solid turns liquid.

The text below walks through data of patent US7429571B2, “Therapeutic furopyrimidines and thienopyrimidines” (BioCryst Pharmaceuticals, Inc., priority 2004, dated 2008).

System in one data set: not given
Conditions: not given
In turn, `OC[C@H]1O[C@@H](c2coc3c(N4CCCC4)ncnc23)[C@H](O)[C@@H]1O` registered a melting point of 198 °C. Compound `C[C@@]1(O)[C@H](O)[C@@H](CO)O[C@H]1c1coc2c(N(N)CCO)ncnc12` registered a melting point of 84 to 92 °C. The compound `CN(N)c1ncnc2c([C@@H]3O[C@H](CO)[C@@H](O)[C@@]3(C)O)coc12` came in with a melting point of 70 to 84 °C. Take `C[C@@]1(O)[C@H](O)[C@@H](CO)O[C@H]1c1coc2c(=O)[nH]c(N)nc12`: the melting point was in the range of 80 to 84 °C. Still for that read-out and setting: the same measure for `CNc1ncnc2c([C@@H]3O[C@H](CO)[C@@H](O)[C@H]3O)coc12`: 88 to 100 °C. On the same count and under the same terms, with `CCNc1ncnc2c([C@@H]3O[C@H](CO)[C@@H](O)[C@H]3O)coc12` the figure was 76 to 88 °C; with `CC(C)Nc1ncnc2c([C@@H]3O[C@H](CO)[C@@H](O)[C@H]3O)coc12`, 58 to 80 °C; with `CN(C)c1ncnc2c([C@@H]3O[C@H](CO)[C@@H](O)[C@H]3O)coc12`, 210 °C. On the same count and under the same terms, with `CCCNc1ncnc2c([C@@H]3O[C@H](CO)[C@@H](O)[C@H]3O)coc12` the figure was 58 to 80 °C; with `OC[C@H]1O[C@@H](c2coc3c(NC4CC4)ncnc23)[C@H](O)[C@@H]1O`, 88 to 100 °C.

Consider `OC[C@H]1O[C@@H](c2coc3c(N4CCC4)ncnc23)[C@H](O)[C@@H]1O`, for which the melting point came out at 192 °C.

The compound `COC(=O)C(NP(=O)(OC[C@H]1O[C@@H](c2coc3c(N)ncnc23)[C@](C)(O)[C@@H]1O)Oc1ccccc1)C(C)C` (stereo in doubt) showed a melting point of 58 to 62 °C.

Another data set relates to HCV. The following applies: patients, sole treatment; cited from earlier work.
Take `NC(=O)c1ncn([C@@H]2O[C@H](CO)[C@@H](O)[C@H]2O)n1` [Ribavirin, 1-β-D-ribofuranosyl-1-1,2,4-triazole-3-carboxamide]: the “effect on serum levels of HCV-RNA” value is recorded as “does not lower serum levels of HCV-RNA”.

Still in this data set, the particulars now being: ribavirin alone; cited from earlier work.
Consider `NC(=O)c1ncn([C@@H]2O[C@H](CO)[C@@H](O)[C@H]2O)n1` [Ribavirin, 1-β-D-ribofuranosyl-1-1,2,4-triazole-3-carboxamide], for which the “patients in whom serum amino transferase levels are reduced to normal” value is 40%.
